The record followed here is patent publication US10479780B2, “Aminopyrazole derivatives” (Chugai Seiyaku Kabushiki Kaisha, priority 2015, dated 2019).

What all share (type): biochemical
Experiment [1] concerns the target T1, human Lck enzyme (Homo sapiens, UniProt P06239).
T1 construct: purchased Carna Biosciences, Inc. 08-170
Briefly: Lck enzyme inhibitory activity (time-resolved fluorometry, biotinylated peptide phosphorylation). The conditions noted are these: read-out: LCK_IC50. The method, boiled down: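 Readout pairs a europium cryptate-labelled anti-phosphotyrosine antibody with XL665-streptavidin, measured by time-resolved fluorescence. IC50 derived from percent inhibition against untreated controls.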

The target in experiment [2] is T2, human Src enzyme (Homo sapiens, UniProt P12931).
T2 construct: purchased Carna Biosciences, Inc. 08-173
Description: Src enzyme inhibitory activity (time-resolved fluorometry, biotinylated peptide phosphorylation). The conditions noted are these: read-out: SRC_IC50. The method, boiled down:
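Compounds were tested for blocking tyrosine phosphorylation of a biotinylated peptide substrate by recombinant human Src. Phosphorylated product was quantified by time-resolved fluorometry using europium cryptate and XL665 conjugates, and IC50 was calculated against the compound-free control.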

Experiment [3] concerns the target T3, human Yes1 enzyme (Homo sapiens, UniProt P07947).
T3 construct: made in house
Description: Yes1 enzyme inhibitory activity (time-resolved fluorometry, biotinylated peptide phosphorylation). The conditions noted are these: read-out: YES_IC50. The method, boiled down: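 Inhibition was expressed against a compound-free control to give IC50, using TR-FRET read-out (Eu-cryptate anti-pTyr antibody, streptavidin-XL665).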

T2 sequence (P12931 whole entry): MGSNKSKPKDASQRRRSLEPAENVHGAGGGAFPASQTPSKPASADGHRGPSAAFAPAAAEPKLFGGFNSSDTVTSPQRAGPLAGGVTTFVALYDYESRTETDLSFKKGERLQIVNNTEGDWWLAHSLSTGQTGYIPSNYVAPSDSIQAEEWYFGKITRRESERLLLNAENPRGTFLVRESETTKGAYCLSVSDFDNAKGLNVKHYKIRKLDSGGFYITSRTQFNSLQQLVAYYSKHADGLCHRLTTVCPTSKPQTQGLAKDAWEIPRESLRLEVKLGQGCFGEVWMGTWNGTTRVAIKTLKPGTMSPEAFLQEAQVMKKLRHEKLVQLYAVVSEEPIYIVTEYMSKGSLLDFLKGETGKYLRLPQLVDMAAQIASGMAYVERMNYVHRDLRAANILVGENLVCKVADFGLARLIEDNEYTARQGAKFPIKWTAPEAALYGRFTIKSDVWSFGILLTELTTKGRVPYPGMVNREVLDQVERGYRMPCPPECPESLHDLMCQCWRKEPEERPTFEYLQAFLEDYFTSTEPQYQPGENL
T3 sequence (P07947 whole entry): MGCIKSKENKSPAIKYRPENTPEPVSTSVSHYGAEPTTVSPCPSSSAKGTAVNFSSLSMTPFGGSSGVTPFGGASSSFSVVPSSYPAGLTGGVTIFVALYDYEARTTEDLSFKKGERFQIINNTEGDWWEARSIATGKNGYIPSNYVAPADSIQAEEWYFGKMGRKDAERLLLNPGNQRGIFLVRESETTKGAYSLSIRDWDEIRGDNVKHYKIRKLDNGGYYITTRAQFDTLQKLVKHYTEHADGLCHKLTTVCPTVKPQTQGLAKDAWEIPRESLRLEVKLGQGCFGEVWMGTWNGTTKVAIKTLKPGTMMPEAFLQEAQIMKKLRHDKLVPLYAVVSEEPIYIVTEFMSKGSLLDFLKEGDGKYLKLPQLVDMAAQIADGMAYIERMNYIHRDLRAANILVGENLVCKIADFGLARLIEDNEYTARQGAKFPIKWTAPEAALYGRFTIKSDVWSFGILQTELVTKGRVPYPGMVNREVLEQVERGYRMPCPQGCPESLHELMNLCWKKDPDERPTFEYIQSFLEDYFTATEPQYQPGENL
T1 sequence (P06239 whole entry): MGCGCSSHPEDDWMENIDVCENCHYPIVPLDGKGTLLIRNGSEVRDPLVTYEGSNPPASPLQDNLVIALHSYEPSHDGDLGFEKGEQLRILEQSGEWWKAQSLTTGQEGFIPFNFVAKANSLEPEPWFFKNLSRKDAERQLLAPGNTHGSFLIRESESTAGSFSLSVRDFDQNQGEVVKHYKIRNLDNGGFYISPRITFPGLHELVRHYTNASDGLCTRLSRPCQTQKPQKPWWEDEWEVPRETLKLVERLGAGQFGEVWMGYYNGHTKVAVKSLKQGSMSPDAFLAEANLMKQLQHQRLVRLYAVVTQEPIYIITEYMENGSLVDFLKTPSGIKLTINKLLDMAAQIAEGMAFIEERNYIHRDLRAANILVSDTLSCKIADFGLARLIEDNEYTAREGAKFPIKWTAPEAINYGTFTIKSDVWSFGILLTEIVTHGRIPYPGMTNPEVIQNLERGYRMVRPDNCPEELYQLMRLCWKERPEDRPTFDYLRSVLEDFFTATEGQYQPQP

Take `Cc1cc2cc(C(=O)c3cnn(-c4ccc(Oc5c(F)cccc5Cl)cc4C)c3N)[nH]c2cc1NS(C)(=O)=O` [Example 5-1-096, N-[2-[5-amino-1-[4-(2-chloro-6-fluorophenoxy)-2-methylphenyl]pyrazole-4-carbonyl]-5-methyl-1H-indol-6-yl] methanesulfonamide]: the IC50 came out at 2.7 nM in experiment [1], 33 nM in experiment [2] and 1.7 nM in experiment [3].
The corresponding values for `Cc1cc(Oc2c(F)cccc2F)ncc1-n1ncc(C(=O)c2cc3cc(F)c(N4CCOC4=O)cc3[nH]2)c1N` [Example 5-1-097, 3-[2-[5-amino-1-[6-(2,6-difluorophenoxy)-4-methylpyridin-3-yl]pyrazole-4-carbonyl]-5-fluoro-1H-indol-6-yl]-1,3-oxazolidin-2-one] are 1.3 nM, 8.7 nM and 1.1 nM.
Consider `Cc1cc(Oc2c(F)cccc2F)ncc1-n1ncc(C(=O)c2cc3cc(F)c(N4CCCC4=O)cc3[nH]2)c1N` [Example 5-1-098, 1-[2-[5-amino-1-[6-(2,6-difluorophenoxy)-4-methylpyridin-3-yl]pyrazole-4-carbonyl]-5-fluoro-1H-indol-6-yl]pyrrolidin-2-one], for which the IC50 in experiment [1] turned out to be 1.4 nM; in experiment [2] it was 15 nM; in experiment [3], 1.9 nM.
The corresponding values for `Cc1cc(Oc2c(F)cccc2F)ncc1-n1ncc(C(=O)c2cc3cc(F)c(N4CCN(S(C)(=O)=O)CC4)cc3[nH]2)c1N` [Example 5-1-099] are 2.2 nM, 11 nM and 2.1 nM.
In the case of `Cc1cc(Oc2c(F)cccc2F)ncc1-n1ncc(C(=O)c2cc3cc(F)c(N4CCOCC4)cc3[nH]2)c1N` [Example 5-1-100, [5-amino-1-[6-(2,6-difluorophenoxy)-4-methylpyridin-3-yl]pyrazol-4-yl]-(5-fluoro-6-morpholin-4-yl-1H-indol-2-yl)methanone], the results for the IC50 in experiment [1], in experiment [2] and in experiment [3] were 1.3 nM, 8.7 nM and 1.6 nM, respectively.
In the same order, the values of `Cc1cc(Oc2c(F)cccc2F)ncc1-n1ncc(C(=O)c2cc3cc(F)c(-n4c(C)cc(=O)[nH]c4=O)cc3[nH]2)c1N` [Example 5-1-101, 1-[2-[5-amino-1-[6-(2,6-difluorophenoxy)-4-methylpyridin-3-yl]pyrazole-4-carbonyl]-5-fluoro-1H-indol-6-yl]-6-methylpyrimidine-2,4-dione] are 1.1 nM, 25 nM and 1.9 nM.
The corresponding values for `Cc1cc(Oc2c(F)cccc2F)ncc1-n1ncc(C(=O)c2cc3cc(F)c(NC4CN(S(C)(=O)=O)C4)cc3[nH]2)c1N` [Example 5-1-102, [5-amino-1-[6-(2,6-difluorophenoxy)-4-methylpyridin-3-yl]pyrazol-4-yl]-[5-fluoro-6-[(1-methylsulfonylazetidin-3-yl)amino]-1H-indol-2-yl]methanone] are 1.3 nM, 5 nM and 0.77 nM.
The corresponding values for `Cc1cc(Oc2ccccc2F)ccc1-n1ncc(C(=O)c2cc3cc(F)c(N4CCCC4=O)cc3[nH]2)c1N` [Example 5-1-103, 1-[2-[5-amino-1-[4-(2-fluorophenoxy)-2-methylphenyl]pyrazole-4-carbonyl]-5-fluoro-1H-indol-6-yl]pyrrolidin-2-one] are 1.1 nM, 5.2 nM and 0.38 nM.
Take `Cc1cc(Oc2ccccc2F)ccc1-n1ncc(C(=O)c2cc3cc(F)c(-n4c(C)cc(=O)[nH]c4=O)cc3[nH]2)c1N` [Example 5-1-104, 1-[2-[5-amino-1-[4-(2-fluorophenoxy)-2-methylphenyl]pyrazole-4-carbonyl]-5-fluoro-1H-indol-6-yl]-6-methylpyrimidine-2,4-dione]: the figures for the IC50 in experiment [1], in experiment [2] and in experiment [3] were 1.1 nM, 9.7 nM and 0.63 nM, respectively.
In the same order, the values of `Cc1cc(Oc2ccccc2F)ccc1-n1ncc(C(=O)c2cc3cc(N4CCOCC4)c(N4CCCC4=O)cc3[nH]2)c1N` [Example 5-1-105, 1-[2-[5-amino-1-[4-(2-fluorophenoxy)-2-methylphenyl]pyrazole-4-carbonyl]-5-morpholin-4-yl-1H-indol-6-yl]pyrrolidin-2-one] are 1.6 nM, 3.6 nM and 0.77 nM.
On to `Cc1cc(Oc2ccccc2F)ccc1-n1ncc(C(=O)c2cc3cc(N4CCOCC4)c(N4CCOC4=O)cc3[nH]2)c1N` [Example 5-1-106, 3-[2-[5-amino-1-[4-(2-fluorophenoxy)-2-methylphenyl]pyrazole-4-carbonyl]-5-morpholin-4-yl-1H-indol-6-yl]-1,3-oxazolidin-2-one], for which the IC50 in experiment [1] stood at 1.1 nM; in experiment [2], 2 nM; in experiment [3], 0.42 nM.
The corresponding values for `Cc1cc2cc(C(=O)c3cnn(-c4ccc(Oc5cc(F)ccc5F)cc4C)c3N)[nH]c2cc1NS(C)(=O)=O` [Example 5-1-107, N-[2-[5-amino-1-[4-(2,5-difluorophenoxy)-2-methylphenyl]pyrazole-4-carbonyl]-5-methyl-1H-indol-6-yl]methanesulfonamide] are 7.9 nM, 96 nM and 1.5 nM.
Regarding `Cc1cc2cc(C(=O)c3cnn(-c4ccc(Oc5ccccc5)cc4C)c3N)[nH]c2cc1NS(C)(=O)=O` [Example 5-1-108, N-[2-[5-amino-1-(2-methyl-4-phenoxyphenyl)pyrazole-4-carbonyl]-5-methyl-1H-indol-6-yl] methanesulfonamide], the IC50 in experiment [1] stood at 1.7 nM; in experiment [2], 21 nM; in experiment [3], 0.57 nM.
For the compound `Cc1cc2cc(C(=O)c3cnn(-c4cnc(Oc5ccccc5)cc4C)c3N)[nH]c2cc1NS(C)(=O)=O` [Example 5-1-109, N-[2-[5-amino-1-(4-methyl-6-phenoxypyridin-3-yl)pyrazole-4-carbonyl]-5-methyl-1H-indol-6-yl]methanesulfonamide], the IC50 in experiment [1] stood at 1.4 nM; in experiment [2] it was 37 nM; in experiment [3], 0.7 nM.
In the same order, the values of `Cc1cc2cc(C(=O)c3cnn(-c4c(C)cc(Oc5ccccc5F)cc4F)c3N)[nH]c2cc1NS(=O)(=O)CC(=O)N1CCCC1` [Example 5-1-110, N-[2-[5-amino-1-[2-fluoro-4-(2-fluorophenoxy)-6-methylphenyl]pyrazole-4-carbonyl]-5-methyl-1H-indol-6-yl]-2-oxo-2-pyrrolidin-1-ylethanesulfonamide] are 10 nM, 68 nM and 7.7 nM.
In the same order, the values of `Cc1cc2cc(C(=O)c3cnn(-c4c(C)cc(Oc5ccccc5F)cc4F)c3N)[nH]c2cc1C1CCN(S(C)(=O)=O)CC1` [Example 5-1-111, [5-amino-1-[2-fluoro-4-(2-fluorophenoxy)-6-methylphenyl]pyrazol-4-yl]-[5-methyl-6-(1-methylsulfonylpiperidin-4-yl)-1H-indol-2-yl] methanone] are 14 nM, 46 nM and 14 nM.
The corresponding values for `Cc1cc(Oc2c(F)cccc2F)ncc1-n1ncc(C(=O)c2cc3cc(F)c(N4CCC(N5CCOCC5)CC4)cc3[nH]2)c1N` [Example 5-1-112, [5-amino-1-[6-(2,6-difluorophenoxy)-4-methylpyridin-3-yl]pyrazol-4-yl]-[5-fluoro-6-(4-morpholin-4-ylpiperidin-1-yl)-1H-indol-2-yl] methanone] are 1.7 nM, 26 nM and 0.81 nM.
Take `Cc1cc(Oc2c(F)cccc2F)ncc1-n1ncc(C(=O)c2cc3cc(F)c(NC4CCN(S(C)(=O)=O)CC4)cc3[nH]2)c1N` [Example 5-1-113, [5-amino-1-[6-(2,6-difluorophenoxy)-4-methylpyridin-3-yl]pyrazol-4-yl]-[5-fluoro-6-[(1-methylsulfonylpiperidin-4-yl)amino]-1H-indol-2-yl]methanone]: the values for the IC50 in experiment [1], in experiment [2] and in experiment [3] were 3.3 nM, 41 nM and 3.9 nM, respectively.
The corresponding values for `Cc1cc(Oc2c(F)cccc2F)ncc1-n1ncc(C(=O)c2cc3cc(F)c(N4C(=O)NC(C)(C)C4=O)cc3[nH]2)c1N` [Example 5-1-114, 3-[2-[5-amino-1-[6-(2,6-difluorophenoxy)-4-methylpyridin-3-yl]pyrazole-4-carbonyl]-5-fluoro-1H-indol-6-yl]-5,5-dimethylimidazolidine-2,4-dione] are 1.1 nM, 41 nM and 1.7 nM.
The corresponding values for `Cc1cc(Oc2c(F)cccc2F)ncc1-n1ncc(C(=O)c2cc3cc(F)c(N4C(=O)C(C)(C)NC4=S)cc3[nH]2)c1N` [Example 5-1-115, 3-[2-[5-amino-1-[6-(2,6-difluorophenoxy)-4-methylpyridin-3-yl]pyrazole-4-carbonyl]-5-fluoro-1H-indol-6-yl]-5,5-dimethyl-2-sulfanylideneimidazolidin-4-one] are 7 nM, 52 nM and 2.3 nM.
In the same order, the values of `Cc1cc(Oc2ccccc2F)ccc1-n1ncc(C(=O)c2cc3cc(N4CCOCC4)c(-n4c(C)cc(=O)[nH]c4=O)cc3[nH]2)c1N` [Example 5-1-116, 1-[2-[5-amino-1-[4-(2-fluorophenoxy)-2-methylphenyl]pyrazole-4-carbonyl]-5-morpholin-4-yl-1H-indol-6-yl]-6-methylpyrimidine-2,4-dione] are 1.6 nM, 5.2 nM and 0.51 nM.
